Measurements from patent US8282926B2, “CCR5-specific antibodies with HIV neutralizing activity that recognize a linear dodecapeptide that mimics a conformational epitope in the second extracellular loop of CCR5” (The United States of America, as Represented by the …, priority 2004, dated 2012).

Experiments:
[1] = tested on: PM1 (CD4+/CCR5+) cells and 12E1 cells expressing HIV-1 envelope; experiment: Fusion-inhibition (syncytium-formation) assay, PM1 cells with 12E1 cells expressing HIV-1 envelope; assay type: cell-based, human
[2] = tested on: mAb 2D7; experiment: Competition phage ELISA using synthetic peptides; assay type: binding, mouse; settings: free peptide, FIG. 3B
[3] = tested on: mAb 2D7; experiment: Peptide ELISA: mAb 2D7 binding to biotinylated peptides captured on streptavidin; design: species or system mouse; settings: for binding of mAb 2D7 to peptide in ELISA: biotinylated peptide captured by streptavidin
Procedure: The bound antibodies were quantified by HRP-conjugated goat anti-mouse IgG antibody. […] Microtiter wells, coated with mAb 2D7 at 200 ng/well, were incubated with serially diluted synthetic 2D7-2SK peptide or with a control peptide (CGRAARIGFPGAYTTKNG) (SEQ ID NO:3) for 30 min at room temperature, p2D7-2SK phages were then added to all wells (10^9 phages/well), followed by addition of HRP-conjugated anti-phage antibodies. […] MAb 2D7 (50 ng/100 μl/well) was added to plates coated with either unmodified biotin-2D7-2SK peptide or mutated biotin-2D7-2SK peptide derivatives (Table 1), all captured on streptavidin coated wells. The bound 2D7 antibodies were quantified by HRP-conjugated goat anti-mouse IgG antibody. The absorbance value (0.49) of mAb 2D7 binding to 2D7-2SK peptide (unmodified) is represented as 100% control binding.
A. Materials. […] Monoclonal antibody (mAb) 2D7 was purchased from BD Pharmingen (San Diego, Calif.). Immunoglobulin and HRP (horseradish peroxidase) conjugated secondary antibodies used for ELISA were obtained from Jackson Immuno Research Laboratories (West Grove, Pa.). Buffers and substrates for ELISA were purchased from KPL Biotech (Gaithersburg, Md.). New Zealand Rabbits were procured from Charles River (Wilmington, Mass.). B. Epitope mapping using phage display library. A random, linear, dodecapeptide-phage display library (Ph.D-12, New England Biolabs) was used for mAb 2D7 epitope mapping. Affinity selection of the phage clones from the random peptide library was carried out per the manufacturer's instructions with minor modifications. Microtiter wells were coated with 200 ng mAb 2D7 in 100 μl PBS, pH 7.4, at 4° C. for 12 h followed by 1 h at room temperature (RT). The wells were washed with PBS containing 0.05% Tween-20 (PBST) and blocked with EMEM containing 5% FBS at RT for 2 h. The phage library (1×10^10 phages/100 μl) was added to the blocked wells and incubated at RT for 1 h. Unbound phages were washed-off with ten washes of PBST followed by three washes with PBS. The bound phages were eluted at low pH by incubation with elution buffer (0.1 N Gly.HCl, pH 2.2 containing 1 mg/ml BSA) at 37° C. for 10 min. Eluent phages were neutralised with 6 μl of 2 M Tris (pH unadjusted) per 100 μl phage eluate. After four rounds of biopanning, the phage clones were analysed by DNA sequencing and affinity-capture phage ELISA. C. Phage ELISA. Phages used for ELISA were derived from clones selected after the fourth round of panning. Microtiter plates coated with 200 ng of mAb 2D7 were blocked with EMEM containing 5% FBS (blocking solution). The phages (10^10/100 μl/well) diluted in blocking solution were then added and incubated for 1 h at room temperature (RT). The plates were washed three times with PBST prior to addition of […] anti-phage antibody (GE Healthcare, Piscataway, N.J.), and the reaction was quantified using ABTS substrate. Absorbance was measured at 405 nm. D. Peptide ELISA. Peptides were biotinylated using maleimide PEO2-Biotin reagent as per manufacturer's instructions (Pierce Biotech, Rockford, Ill.). The biotinylated peptide ([…]) was captured onto wells coated with 200 ng of streptavidin. After blocking with EMEM containing 5% FBS, serial dilutions of mAb 2D7 in blocking solution were added to each well, incubated for 1 hr at RT, followed by addition of peroxidase-conjugated goat anti-mouse IgG. The reaction was quantified using ABTS substrate. Absorbance was measured at 405 nm. […]

[4] = tested on: 2D7-2SK peptide; experiment: Peptide ELISA: antibody binding to biotinylated 2D7-2SK peptide; settings: ELISA / binding assay
Procedure: IgG antibodies from rabbit immunized subcutaneously with KLH-conjugated 2D7-2SK peptide were used in peptide and Cell ELISA. […] Specific antibody binding was measured by HRP-conjugated goat anti-rabbit IgG antibody.
A. Materials. […] Monoclonal antibody (mAb) 2D7 was purchased from BD Pharmingen (San Diego, Calif.). Immunoglobulin and HRP (horseradish peroxidase) conjugated secondary antibodies used for ELISA were obtained from Jackson Immuno Research Laboratories (West Grove, Pa.). Buffers and substrates for ELISA were purchased from KPL Biotech (Gaithersburg, Md.). New Zealand Rabbits were procured from Charles River (Wilmington, Mass.). B. Epitope mapping using phage display library. A random, linear, dodecapeptide-phage display library (Ph.D-12, New England Biolabs) was used for mAb 2D7 epitope mapping. Affinity selection of the phage clones from the random peptide library was carried out per the manufacturer's instructions with minor modifications. […] After four rounds of biopanning, the phage clones were analysed by DNA sequencing and affinity-capture phage ELISA. […] The plates were washed three times with PBST prior to addition of […] anti-phage antibody (GE Healthcare, Piscataway, N.J.), and the reaction was quantified using ABTS substrate. Absorbance was measured at 405 nm. […] The reaction was quantified using ABTS substrate. Absorbance was measured at 405 nm. […]

E-W-Q-K-E-G-L-V-T-L-W-L-G-G-G-G-S-C (EWQKEGLVTLWLGGGGSC) [2D7-2SK]
inhibitory activity of peptide by itself in the fusion assay ([1]; peptide alone): did not demonstrate any inhibitory activity | inhibition of binding of phage p2D7-2SK to mAb 2D7-coated plates [2]: inhibited | binding of mAb 2D7 to peptide in ELISA [3]: concentration-dependent specific reactivity | absorbance value of mAb 2D7 binding to peptide ([3]; mAb 2D7 50 ng/100 μl/well, represented as 100% control binding, FIG. 3C): 0.49

E-W-Q-R-E-G-L-V-T-L-W-L-G-G-G-G-S-C (EWQREGLVTLWLGGGGSC) [2D7-2SK-K4R]
binding of mAb 2D7 to peptide in ELISA [3]: completely lost binding

F-C-A-L-D-G-D-F-G-W-L-A-P-A-C (FCALDGDFGWLAPAC) [MD23, reference compound]
binding of mAb 2D7 to peptide in ELISA [3]: did not bind

Q-L-W-L-G-W-T-E-L-E-G-V-K-G-G-G-S-C (QLWLGWTELEGVKGGGSC) [2D7-2SK-SCR, reference compound]
binding of mAb 2D7 to peptide in ELISA [3]: not

B1: ScFv-SK-34: single chain human monoclonal antibody against peptide 2D7-2SK; VH SEQ ID NO:12, VL SEQ ID NO:14 (antibody, listed as Homo sapiens, V domains shown)
VH: EVQLLESGGGLVQPGGSLRLSCAASGFTFDDYGMSWVRQAPGKGLEWVSVISASGGSTYYADSVNGRFTISRDNSKNTLYLQMNSLRAEDTAVYYCARYLPGLWAMDVWGQGTLVTVSSGSA
VL: DIVLTQPPSASGTPGQRVTISCTGSRSNIGKNYVSWYQQLPGKAPKLLIYKNYQRPSGVPDRFSGSKSGTSASLAISGLRSEDEADYYCAAWDDSLSGWVFGGSTQLTVLA
inhibition of HIV syncytia formation, in words ([1]; R5 HIV-1 envelopes, human CCR5 expressing cells): positive | binding to 2D7-2SK peptide [4]: bind preferentially and with high affinity
